Holding throughout (assay): KINOMEscan (ScanMAX) kinase profiling
Holding throughout (format): binding

For assay [1], the target named is T1, panel of 468 kinases (Homo sapiens, UniProt O75460).
T1 construct: purchased KINOMEscan (ScanMAX) service
The following applies: ERN1; 1 μM; read-out: % control.

Assay [2] addresses T2, panel of 468 kinases (Homo sapiens, UniProt P00533, L858R).
T2 construct: purchased KINOMEscan (ScanMAX) service
The following applies: EGFR(L858R); 1 μM; read-out: % control.

Assay [3] has as its target T3, panel of 468 kinases (Homo sapiens, UniProt Q13177).
T3 construct: purchased KINOMEscan (ScanMAX) service
Particulars: PAK2; 1 μM; read-out: % control.

Assay [4] addresses T4, panel of 468 kinases (Homo sapiens, UniProt Q8NE63).
T4 construct: purchased KINOMEscan (ScanMAX) service
T4 sequence (Q8NE63 1-616): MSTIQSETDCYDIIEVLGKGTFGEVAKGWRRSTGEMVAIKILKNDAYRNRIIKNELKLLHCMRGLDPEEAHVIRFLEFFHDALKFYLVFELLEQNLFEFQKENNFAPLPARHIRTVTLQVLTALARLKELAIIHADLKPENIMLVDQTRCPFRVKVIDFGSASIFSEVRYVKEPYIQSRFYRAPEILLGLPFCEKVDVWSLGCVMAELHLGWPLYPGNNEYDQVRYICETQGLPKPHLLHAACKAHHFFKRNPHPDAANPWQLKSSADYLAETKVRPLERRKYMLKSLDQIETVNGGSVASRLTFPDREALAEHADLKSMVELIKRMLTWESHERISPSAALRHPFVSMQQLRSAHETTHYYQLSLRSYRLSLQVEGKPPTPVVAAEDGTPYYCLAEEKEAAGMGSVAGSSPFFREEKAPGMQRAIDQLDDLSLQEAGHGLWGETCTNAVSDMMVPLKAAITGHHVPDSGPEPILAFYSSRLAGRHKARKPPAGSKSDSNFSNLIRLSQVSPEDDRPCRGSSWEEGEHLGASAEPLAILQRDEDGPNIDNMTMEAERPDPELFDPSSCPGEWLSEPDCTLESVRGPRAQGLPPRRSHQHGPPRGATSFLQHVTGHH
Particulars: HIPK4; 1 μM; read-out: % control.

Assay [5] concerns the target T5, panel of 468 kinases (Homo sapiens, UniProt Q9H2K8).
T5 construct: purchased KINOMEscan (ScanMAX) service
T5 sequence (Q9H2K8 1-898): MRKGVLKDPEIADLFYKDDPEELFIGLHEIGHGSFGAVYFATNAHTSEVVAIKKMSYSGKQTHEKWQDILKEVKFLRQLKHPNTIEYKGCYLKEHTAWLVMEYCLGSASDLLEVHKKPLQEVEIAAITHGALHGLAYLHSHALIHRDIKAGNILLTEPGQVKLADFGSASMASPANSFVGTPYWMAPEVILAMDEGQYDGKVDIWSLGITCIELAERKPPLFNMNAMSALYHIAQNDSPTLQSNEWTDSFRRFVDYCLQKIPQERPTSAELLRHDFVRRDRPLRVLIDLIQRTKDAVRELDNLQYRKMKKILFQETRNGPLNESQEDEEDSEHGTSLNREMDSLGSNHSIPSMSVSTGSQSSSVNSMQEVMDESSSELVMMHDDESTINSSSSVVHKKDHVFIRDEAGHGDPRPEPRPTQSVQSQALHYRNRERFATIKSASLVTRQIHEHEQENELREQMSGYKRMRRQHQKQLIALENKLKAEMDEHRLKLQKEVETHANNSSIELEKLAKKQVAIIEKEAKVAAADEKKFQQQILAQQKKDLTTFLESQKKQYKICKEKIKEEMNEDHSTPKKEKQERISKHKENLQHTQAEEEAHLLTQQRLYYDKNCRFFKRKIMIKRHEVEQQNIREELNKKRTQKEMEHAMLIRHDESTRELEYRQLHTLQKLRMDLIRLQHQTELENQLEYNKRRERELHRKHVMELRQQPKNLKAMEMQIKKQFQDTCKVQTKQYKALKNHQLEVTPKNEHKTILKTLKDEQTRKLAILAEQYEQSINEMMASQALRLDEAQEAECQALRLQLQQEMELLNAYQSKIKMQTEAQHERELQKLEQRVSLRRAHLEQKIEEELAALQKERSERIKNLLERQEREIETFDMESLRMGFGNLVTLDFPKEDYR
The following applies: TAOK3; 1 μM; read-out: % control.

The target in assay [6] is T6, panel of 468 kinases (Homo sapiens, UniProt Q9UBE8).
T6 construct: purchased KINOMEscan (ScanMAX) service
T6 sequence (Q9UBE8 1-527): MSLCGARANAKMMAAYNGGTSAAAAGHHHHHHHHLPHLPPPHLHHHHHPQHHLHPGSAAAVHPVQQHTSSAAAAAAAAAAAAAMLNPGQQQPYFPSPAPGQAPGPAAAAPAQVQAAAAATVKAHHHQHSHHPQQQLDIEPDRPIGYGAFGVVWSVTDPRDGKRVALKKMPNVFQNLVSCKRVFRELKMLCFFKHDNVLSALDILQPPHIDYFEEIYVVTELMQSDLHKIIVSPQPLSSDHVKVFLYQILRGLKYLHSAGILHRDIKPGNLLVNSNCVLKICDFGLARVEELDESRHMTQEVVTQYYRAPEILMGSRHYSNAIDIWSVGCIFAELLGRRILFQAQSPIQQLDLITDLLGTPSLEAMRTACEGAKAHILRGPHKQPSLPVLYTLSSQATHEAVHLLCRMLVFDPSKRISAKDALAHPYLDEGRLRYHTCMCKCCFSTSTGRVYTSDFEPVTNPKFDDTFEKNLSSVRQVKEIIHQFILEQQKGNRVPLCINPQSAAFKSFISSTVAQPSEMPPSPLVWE
Particulars: NLK; 1 μM; read-out: % control.

Assay [7] deals with T7, panel of 468 kinases (Homo sapiens, UniProt Q9Y6E0).
T7 construct: purchased KINOMEscan (ScanMAX) service
T7 sequence (Q9Y6E0 whole entry): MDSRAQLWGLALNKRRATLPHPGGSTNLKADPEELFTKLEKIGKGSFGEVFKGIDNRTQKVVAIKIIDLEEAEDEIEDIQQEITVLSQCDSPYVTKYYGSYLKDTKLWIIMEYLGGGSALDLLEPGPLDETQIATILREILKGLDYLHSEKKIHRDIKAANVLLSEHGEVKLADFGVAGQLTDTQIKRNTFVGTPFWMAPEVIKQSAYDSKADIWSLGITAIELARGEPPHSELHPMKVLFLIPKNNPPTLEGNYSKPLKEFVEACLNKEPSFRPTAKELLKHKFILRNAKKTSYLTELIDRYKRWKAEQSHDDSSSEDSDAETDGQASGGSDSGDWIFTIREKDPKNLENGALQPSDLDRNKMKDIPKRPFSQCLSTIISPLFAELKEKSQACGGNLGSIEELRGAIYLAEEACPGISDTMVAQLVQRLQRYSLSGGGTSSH
Particulars: MST3; 1 μM; read-out: % control.

T1 sequence (O75460 19-977): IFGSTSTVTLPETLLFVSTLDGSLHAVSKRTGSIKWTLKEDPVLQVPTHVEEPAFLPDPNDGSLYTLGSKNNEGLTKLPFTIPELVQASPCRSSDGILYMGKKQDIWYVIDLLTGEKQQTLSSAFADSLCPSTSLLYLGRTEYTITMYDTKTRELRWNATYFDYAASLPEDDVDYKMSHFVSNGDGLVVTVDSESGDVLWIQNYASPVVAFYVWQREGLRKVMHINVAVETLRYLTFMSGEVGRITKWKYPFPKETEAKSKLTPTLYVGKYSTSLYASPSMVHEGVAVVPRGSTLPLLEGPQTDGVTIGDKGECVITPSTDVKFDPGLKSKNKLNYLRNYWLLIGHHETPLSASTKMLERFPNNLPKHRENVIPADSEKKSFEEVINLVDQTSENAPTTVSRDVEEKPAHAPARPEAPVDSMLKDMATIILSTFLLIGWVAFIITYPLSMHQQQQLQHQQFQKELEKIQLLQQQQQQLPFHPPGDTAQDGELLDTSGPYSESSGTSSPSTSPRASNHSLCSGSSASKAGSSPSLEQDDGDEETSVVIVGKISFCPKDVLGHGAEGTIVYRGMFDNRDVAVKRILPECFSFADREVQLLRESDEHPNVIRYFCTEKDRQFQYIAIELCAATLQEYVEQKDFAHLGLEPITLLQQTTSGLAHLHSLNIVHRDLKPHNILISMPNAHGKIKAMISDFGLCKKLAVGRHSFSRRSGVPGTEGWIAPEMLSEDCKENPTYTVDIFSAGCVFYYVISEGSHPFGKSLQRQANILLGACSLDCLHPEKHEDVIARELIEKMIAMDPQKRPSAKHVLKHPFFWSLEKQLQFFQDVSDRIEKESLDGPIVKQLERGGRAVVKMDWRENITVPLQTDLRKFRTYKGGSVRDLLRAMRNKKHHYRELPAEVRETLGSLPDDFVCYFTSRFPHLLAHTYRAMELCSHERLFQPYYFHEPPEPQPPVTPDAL
T2 sequence (P00533 25-1210 L858R): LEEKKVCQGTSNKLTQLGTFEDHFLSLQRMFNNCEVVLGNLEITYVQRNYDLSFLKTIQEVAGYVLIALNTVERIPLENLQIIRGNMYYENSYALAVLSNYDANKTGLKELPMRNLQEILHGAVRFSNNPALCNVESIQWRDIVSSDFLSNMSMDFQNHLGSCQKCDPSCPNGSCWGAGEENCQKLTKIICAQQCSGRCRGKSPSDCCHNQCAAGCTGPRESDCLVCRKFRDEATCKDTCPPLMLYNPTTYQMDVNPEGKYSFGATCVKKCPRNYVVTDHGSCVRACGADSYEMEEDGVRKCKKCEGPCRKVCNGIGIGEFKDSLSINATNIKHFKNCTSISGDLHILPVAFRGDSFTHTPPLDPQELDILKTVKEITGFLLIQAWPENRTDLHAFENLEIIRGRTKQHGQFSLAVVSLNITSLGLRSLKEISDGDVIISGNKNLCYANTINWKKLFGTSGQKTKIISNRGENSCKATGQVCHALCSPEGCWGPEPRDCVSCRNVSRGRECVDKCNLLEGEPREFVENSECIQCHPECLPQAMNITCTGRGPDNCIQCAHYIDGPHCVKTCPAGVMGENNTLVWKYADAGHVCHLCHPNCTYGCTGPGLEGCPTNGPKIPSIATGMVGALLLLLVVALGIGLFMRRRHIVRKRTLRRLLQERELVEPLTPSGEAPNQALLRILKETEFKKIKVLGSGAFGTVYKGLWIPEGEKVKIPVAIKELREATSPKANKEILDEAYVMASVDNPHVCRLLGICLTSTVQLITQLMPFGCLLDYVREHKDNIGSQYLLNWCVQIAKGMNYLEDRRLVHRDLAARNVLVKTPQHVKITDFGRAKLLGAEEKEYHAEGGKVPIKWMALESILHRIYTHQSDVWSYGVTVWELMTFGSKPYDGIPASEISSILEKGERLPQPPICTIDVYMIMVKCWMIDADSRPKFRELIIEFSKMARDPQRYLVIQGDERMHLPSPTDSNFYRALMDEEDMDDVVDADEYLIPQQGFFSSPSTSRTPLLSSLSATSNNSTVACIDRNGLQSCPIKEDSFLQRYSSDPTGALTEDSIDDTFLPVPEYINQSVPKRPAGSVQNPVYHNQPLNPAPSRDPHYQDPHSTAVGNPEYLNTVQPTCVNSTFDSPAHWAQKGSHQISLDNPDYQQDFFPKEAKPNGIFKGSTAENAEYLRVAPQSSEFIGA
T3 sequence (Q13177 whole entry): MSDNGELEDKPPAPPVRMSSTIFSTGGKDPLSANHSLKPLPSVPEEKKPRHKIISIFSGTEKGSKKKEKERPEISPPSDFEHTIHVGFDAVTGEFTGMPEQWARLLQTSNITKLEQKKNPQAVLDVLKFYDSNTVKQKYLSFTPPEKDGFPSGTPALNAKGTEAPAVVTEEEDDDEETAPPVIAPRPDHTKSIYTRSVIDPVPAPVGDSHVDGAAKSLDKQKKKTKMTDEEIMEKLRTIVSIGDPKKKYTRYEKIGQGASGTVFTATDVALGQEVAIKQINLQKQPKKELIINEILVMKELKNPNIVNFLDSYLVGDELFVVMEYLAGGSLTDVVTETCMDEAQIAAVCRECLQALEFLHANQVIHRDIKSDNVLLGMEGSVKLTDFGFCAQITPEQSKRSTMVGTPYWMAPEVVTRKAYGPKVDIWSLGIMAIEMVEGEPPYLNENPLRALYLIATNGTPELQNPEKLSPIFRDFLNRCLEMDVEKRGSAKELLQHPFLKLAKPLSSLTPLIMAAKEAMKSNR

`CNc1nc(Nc2ccc(S(=O)(=O)N3CCC(N4CCOCC4)CC3)cc2OC)nc2[nH]cc(Cl)c12` [Compound 12, 5-chloro-N2-(2-methoxy-4-((4-morpholinopiperidin-1-yl)sulfonyl)phenyl)-N4-methyl-7H-pyrrolo[2,3-d]pyrimidine-2,4-diamine]: the remaining binding at 1 µM on panel of 468 kinases [1] was 67%; on panel of 468 kinases [2], 100%; on panel of 468 kinases [3], 100%; at panel of 468 kinases [4] it was 100%; at panel of 468 kinases [5], 85%; on panel of 468 kinases [6], 100%. The remaining binding at 1 µM on panel of 468 kinases [7] came out at 97%.

For the molecule `CNc1nc(Nc2ccc(P3(=O)CCN(C4CCOCC4)CC3)cc2OC)nc2[nH]cc(Cl)c12` [Compound 77, 4-(4-((5-chloro-4-(methylamino)-7H-pyrrolo[2,3-d]pyrimidin-2-yl)amino)-3-methoxyphenyl)-1-(tetrahydro-2H-pyran-4-yl)-1,4-azaphosphinane 4-oxide], the remaining binding at 1 µM on panel of 468 kinases [1] turned out to be 60%; on panel of 468 kinases [2], 76%; on panel of 468 kinases [3] it was 100%; at panel of 468 kinases [4] it was 99%; on panel of 468 kinases [5] it was 84%; at panel of 468 kinases [6], 100%. Besides, at panel of 468 kinases [7], the remaining binding at 1 µM was 88%.

Take `CNc1nc(Nc2ccc(C(=O)N3CCC(N4CCOCC4)CC3)c3c2OCO3)nc2[nH]cc(Cl)c12` [Compound 75, (7-((5-chloro-4-(methylamino)-7H-pyrrolo[2,3-d]pyrimidin-2-yl)amino)benzo[d][1,3]dioxol-4-yl)(4-morpholinopiperidin-1-yl)methanone]: the remaining binding at 1 µM on panel of 468 kinases [1] was 73%; on panel of 468 kinases [2] it was 100%; on panel of 468 kinases [3], 100%; at panel of 468 kinases [4] it was 97%; on panel of 468 kinases [5] it was 83%; on panel of 468 kinases [6], 100%. Further, at panel of 468 kinases [7], the remaining binding at 1 µM turned out to be 98%.

For the origin of these results see patent US12479847B2 (DANA-FARBER CANCER INSTITUTE, INC., priority 2019, dated 2025).
